Tests used:
[1] = tested on: carotid artery endothelial layer; test: ex vivo transfer of drug crystals from an ePTFE substrate to a vascular tissue; design: species or system swine; details: 60 sec compression at 5.4 atm
Method: Substrates of ePTFE of Examples 1 and 2 were coated with paclitaxel (10 mg/ml) or paclitaxel/urea (1:1 mass ratio; 10 mg/ml paclitaxel) according to Example 4. The substrates were examined under SEM to confirm the presence of high aspect paclitaxel crystal habits embedded and oriented in the ePTFE microstructure.
A freshly harvested carotid artery from >2 yr old swine (Animal Technologies Inc., Tyler TX) was slit axially using a scalpel blade, cut lengthwise into portions, everted, and the portions adhered to a glass microscope slide using cyanoacrylate adhesive (Loctite), luminal aspect up. Tissue portions were kept wet using phosphate-buffered saline until use.
The glass microscope slide containing the artery portion was gently placed, tissue side down, upon the coated ePTFE substrate, to expose the endothelial layer to the paclitaxel crystals. The endothelial layer was compressed at about 5.4 atm against the coated ePTFE substrate for 60 sec. The glass microscope slide containing the artery portion was then examined under SEM.

[2] = ethylene oxide sterilization of coated ePTFE substrates, SEM visualization; assay type: physicochemical; details: conditioning about 24 hr, EtO dwell about 22 hr, 64° C., aeration about 12 hrs; samples of Examples 6 and 7
Method: Representative samples of Examples 6 and 7 were exposed to ethylene oxide sterilization, under conditions of conditioning for about 24 hr, an EtO gas dwell time of about 22 hr, a set point temperature of 64° C., and an aeration time of about 12 hrs. The samples were then visualized with SEM.

## CC(=O)O[C@H]1C(=O)[C@@]2(C)[C@H]([C@H](OC(=O)c3ccccc3)[C@]3(O)C[C@H](OC(=O)[C@H](O)[C@@H](NC(=O)c4ccccc4)c4ccccc4)C(C)=C1C3(C)C)[C@]1(OC(C)=O)CO[C@@H]1C[C@@H]2O [paclitaxel]
[1]
  high aspect ratio of the crystals after compression (mechanical stability and strength): intact
[2]
  acicular habits, geometry, penetration into ePTFE and angles of projection after ethylene oxide sterilization: unaffected
